Laboratory results from patent US20250276972A1, “COMPOUNDS AS CASEIN KINASE INHIBITORS” (GRITSCIENCE BIOPHARMACEUTICALS CO.,LTD., priority 2020, published 2025).
pEC50, pIC50: −log10 of the molar value.

Experiments:
CK1δ = molecular target: T1, CK1δ (Homo sapiens, UniProt P48730); experiment: CK1δ inhibition (EC50); Bmal1-dLuc or Per2-dLuc U2OS luminescence rhythm period assay; type: cell-based; conditions: Table 3
T1 construct: endogenous in cells; host or cells: Bmal1-dLuc or Per2-dLuc U2OS cells
Description: Bmall-dLuc or Per2-dLuc U2OS cells were suspended in the culture medium (DMEM supplemented with 10% fetal bovine serum, 0.29 mg/mL L-glutamine, 100 units/mL penicillin, and […] streptomycin) and plated onto 96-well white solid-bottom plates at 200 μL (10,000 cells) per well. After 2 days, 100 μL of the explant medium (DMEM supplemented with 2% B27, 10 mM HEPES, 0.38 mg/mL sodium bicarbonate, 0.29 mg/mL L-glutamine, 100 units/mL penicillin, […], 0.1 mg/mL gentamicin, and 1 mM luciferin, pH 7.2) was dispensed to each well, followed by the application of 1 μL of a compound of the present application (dissolved in DMSO; final concentration was 0.7% in DMSO). The plate was covered with an optically clear film and set to microplate reader (Infinite M200, Tecan).

wild type CK1δ = wild type CK1δ (Homo sapiens, UniProt P48730); experiment: CK1δ kinase assay (Kinase-Glo); type: biochemical; conditions: 10 μM ATP, 2 nM wild type CK1δ, 85 min at 25° C.
Description: The reaction mixture was incubated for 85 min at 25° C.; detection was carried out as described for the Kinase-Glo Assay (Promega). Luminescent output was measured on the Perkin Elmer Envision plate reader (PerkinElmer, Waltham, MA).

[1] = Intrinsic clearance in liver microsomes (human); type: in vitro ADME; conditions: Human liver microsomes 0.5 mg/mL, 2 μM compound, 37° C.; for microsomal CLint at 2 μM: read-out: in vitro CLint (μL/min/mg protein); for half-life at 2 μM: read-out: in vitro t1/2
Description: (§1) • 1. The master solution was prepared according to Table 5.
(§2) • 2. Three separated experiments were performed as follows. a) With NADPH: 10 μL of 20 mg/mL liver microsomes and 40 μL of 10 mM NADPH were added to the incubations. The final concentrations of microsomes and NADPH were 0.5 mg/mL and 1 mM, respectively. b) Without NADPH: 10 μL of 20 mg/mL liver microsomes and 40 μL of ultra-pure H2O were added to the incubations. The final concentration of microsomes was 0.5 mg/mL. c) Heat-inactivated microsomes without NADPH: 10 μL of 20 mg/mL heat-inactivated liver microsomes and 40 μL of ultra-pure H2O were added to the incubations. The final concentration of microsomes was 0.5 mg/mL. • 3. The reaction was started with the addition of 4 μL of 200 μM test compound solution or control compound solution at the final concentration of 2 μM and carried out at 37° C. • 4. Aliquots of 50 μL were taken from the reaction solution at 0, 15, 30, 45 and 60 min. […] Samples were centrifuged at 3, 220 g for 40 minutes. […] Data Analysis
(§3) Peak areas were determined from extracted ion chromatograms. The slope value, k, was determined by linear regression of the natural logarithm of the remaining percentage of the parent drug vs. incubation time curve.
(§4) The in vitro half-life (in vitro t1/2) was determined from the slope value:
(§5) Conversion of the in vitro t1/2 (min) into the in vitro intrinsic clearance (in vitro CLint, in μL/min/mg protein) was done using the following equation (mean of duplicate determinations): […]

[2] = Intrinsic clearance in liver microsomes (mouse); type: in vitro ADME; conditions: Mouse liver microsomes 0.5 mg/mL, 2 μM compound, 37° C.; for microsomal CLint at 2 μM: read-out: in vitro CLint (μL/min/mg protein); for half-life at 2 μM: read-out: in vitro t1/2
Description: as §1, §2, §3, §4, §5

wild type CK1δ, sequence (P48730 whole entry): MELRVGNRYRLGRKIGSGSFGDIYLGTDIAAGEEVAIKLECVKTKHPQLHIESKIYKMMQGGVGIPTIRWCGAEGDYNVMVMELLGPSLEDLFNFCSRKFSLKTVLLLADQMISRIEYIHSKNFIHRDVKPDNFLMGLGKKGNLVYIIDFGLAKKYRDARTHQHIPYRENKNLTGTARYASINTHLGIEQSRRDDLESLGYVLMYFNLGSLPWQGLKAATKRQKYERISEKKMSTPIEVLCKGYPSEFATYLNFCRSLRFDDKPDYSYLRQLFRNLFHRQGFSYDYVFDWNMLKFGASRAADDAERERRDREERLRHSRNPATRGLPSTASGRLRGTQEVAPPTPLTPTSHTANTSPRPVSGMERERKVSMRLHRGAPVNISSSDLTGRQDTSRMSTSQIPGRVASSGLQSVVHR
T1 sequence (P48730 whole entry): as above

SMILES | pEC50 (CK1δ) | pIC50 (wild type CK1δ) | microsomal CLint at 2 μM [1] [µL/min/mg] | half-life at 2 μM [1] [min] | microsomal CLint at 2 μM [2] [µL/min/mg] | half-life at 2 μM [2] [min]
Cc1cc(-c2c(-c3ccc(F)cc3)nn3c2CN(C(=O)C(F)(F)F)CC3)ccn1 [Compound I-16, 2,2,2-trifluoro-1-(2-(4-fluorophenyl)-3-(2-methylpyridin-4-yl)-6,7-dihydropyrazolo [1,5-a]pyrazin-5(4H)-yl)ethan-1-one] | 5.28 | 5.77 | – | – | – | –
[2H]C([2H])([2H])c1cc(-c2c(-c3ccc(F)cc3)nn3c2CN(C(=O)CCN(C)C)CC3)ccn1 [Compound I-134, 3-(dimethylamino)-1-(2-(4-fluorophenyl)-3-(2-(methyl-d3)pyridin-4-yl)-6,7-dihydropyrazolo[1,5-a]pyrazin-5(4H)-yl)propan-1-one] | – | 5.75 | – | – | – | –
Cc1cc(-c2c(-c3ccc(F)cc3)nn3c2CN(C(=O)CCN(C)C)CC3)ccn1 [Compound I-6, 3-(dimethylamino)-1-(2-(4-fluorophenyl)-3-(2-methylpyridin-4-yl)-6,7-dihydropyrazolo[1,5-a]pyrazin-5(4H)-yl)propan-1-one] | 5.13 | 5.99 | – | – | – | –
CC(=O)Nc1cc(-c2c(-c3ccc(F)cc3)nn3c2CN(C2CC(O)C2)CC3)ccn1 (stereo not shown) [Compound I-44, N-(4-(2-(4-fluorophenyl)-5-(3-hydroxycyclobutyl)-4,5,6,7-tetrahydropyrazolo[1,5-a]pyrazin-3-yl)pyridin-2-yl)acetamide] | 6.10 | – | 4.98 | 278 | 20.5 | 67.5
Cc1cc(-c2c(-c3ccc(F)cc3)nn3c2CN(CCO)CC3)ccn1 [Compound I-11, 2-(2-(4-fluorophenyl)-3-(2-methylpyridin-4-yl)-6,7-dihydropyrazolo[1,5-a]pyrazin-5. (4H)-yl)ethan-1-ol] | – | – | 8.74 | 159 | 16.3 | 84.9
Cc1cc(-c2c(-c3ccc(F)cc3)nn3c2CN(Cc2ncccn2)CC3)ccn1 [Compound I-9, 2-(4-fluorophenyl)-3-(2-methylpyridin-4-y)-5-(pyrimidin-2-ylmethyl)-4,5,6,7-tetrahydropyrazolo[1,5-a]pyrazine] | – | – | 12.4 | 112 | 43.4 | 31.9
CC(=O)N1CCn2nc(-c3ccc(F)cc3)c(-c3ccnc(NC(=O)C4(c5ccc(F)cc5)CC4)c3)c2C1 [Compound I-77, N-(4-(5-acetyl-2-(4-fluorophenyl)-4,5,6,7-tetrahydropyrazolo[1,5-a]pyrazin-3-yl)pyridin-2-yl)-1-(4-fluorophenyl)cyclopropane-1-carboxamide] | 5.70 | – | 25.2 | 55 | 152 | 9.14
CC(=O)N1CCn2nc(-c3ccc(F)cc3)c(-c3ccnc(NCC(F)(F)F)c3)c2C1 [Compound I-96, 1-(2-(4-fluorophenyl)-3-(2-((2,2,2-trifluoroethyl)amino)pyridin-4-yl)-6,7-dihydropyrazolo [1,5-a]pyrazin-5(4H)-yl)ethan-1-one] | 5.35 | – | 3.74 | 370 | 10 | 138
CC(C)C(=O)Nc1cc(-c2c(-c3ccc(F)cc3)nn3c2CN(C)CC3)ccn1 [Compound I-102, N-(4-(2-(4-fluorophenyl)-5-methyl-4,5,6,7-tetrahydropyrazolo[1,5-a]pyrazin-3-yl)pyridin-2-yl)isobutyramide] | 6.15 | – | 29.9 | 46.4 | 611 | 2.27
CC(=O)N1CCn2nc(-c3ccc(F)cc3)c(-c3cc(N)ncn3)c2C1 [Compound I-63, 1-(3-(6-aminopyrimidin-4-yl)-2-(4-fluorophenyl)-6,7-dihydropyrazolo[1,5-a]pyrazin-5(4H)-yl)ethan-1-one] | – | 4.54 | – | – | – | –

Continued by rising pEC50 (CK1δ), values first:

pEC50 (CK1δ) | pIC50 (wild type CK1δ) | microsomal CLint at 2 μM [1] [µL/min/mg] | half-life at 2 μM [1] [min] | microsomal CLint at 2 μM [2] [µL/min/mg] | half-life at 2 μM [2] [min] | SMILES
6.15 | 6.48 | – | – | – | – | Nc1cc(-c2nn3c(c2-c2ccc(F)cc2)C(=O)NCC3)ccn1 [Compound I-64, 2-(2-aminopyridin-4-yl)-3-(4-fluorophenyl)-6,7-dihydropyrazolo[1,5-a]pyrazin-4(5H)-one]
6.15 | – | 94.3 | 14.7 | 665 | 2.09 | CN1CCn2nc(-c3ccc(F)cc3)c(-c3ccnc(NC(=O)C4CC4)c3)c2C1 [Compound I-89, N-(4-(2-(4-fluorophenyl)-5-methyl-4,5,6,7-tetrahydropyrazolo[1,5-a]pyrazin-3-yl)pyridin-2-yl)cyclopropanecarboxamide]
6.15 | – | 52.5 | 26.4 | 532 | 2.61 | COCCN1CCn2nc(-c3ccc(F)cc3)c(-c3ccnc(NC(C)=O)c3)c2C1 [Compound I-40, N-(4-(2-(4-fluorophenyl)-5-(2-methoxyethyl)-4,5,6.7-tetrahydropyrazolo[1,5-a]pyrazin-3-yl)pyridin-2-yl)acetamide]
6.22 | – | 68.2 | 20.3 | 465 | 2.98 | CCC(C)C(=O)Nc1cc(-c2c(-c3ccc(F)cc3)nn3c2CN(C)CC3)ccn1 (stereo not shown) [Compound I-100, N-(4-(2-(4-fluorophenyl)-5-methyl-4,5,6,7-tetrahydropyrazolo[1,5-a]pyrazin-3-yl)pyridin-2-yl)-2-methylbutanamide]
6.30 | – | 49.8 | 27.8 | 679 | 2.04 | CCC(=O)Nc1cc(-c2c(-c3ccc(F)cc3)nn3c2CN(C)CC3)ccn1 [Compound I-103, N-(4-(2-(4-fluorophenyl)-5-methyl-4,5,6,7-tetrahydropyrazolo[1,5-a]pyrazin-3-yl)pyridin-2-yl)propionamide]
6.30 | – | 274 | 5.06 | 1040 | 1.33 | CC(=O)Nc1cc(-c2c(-c3ccc(F)cc3)nn3c2CN(C2CCC2)CC3)ccn1 [Compound I-33, N-(4-(5-cyclobutyl-2-(4-fluorophenyl)-4,5,6,7-tetrahydropyrazolo[1,5-a]pyrazin-3-yl)pyridin-2-yl)acetamide]
6.40 | – | 47.4 | 29.2 | 975 | 1.42 | CC(=O)Nc1cc(-c2c(-c3ccc(F)cc3)nn3c2CN(CCF)CC3)ccn1 [Compound I-42, N-(4-(5-(2-fluoroethyl)-2-(4-fluorophenyl)-4,5,6,7-tetrahydropyrazolo[1,5-a]pyrazin-3-yl)pyridin-2-yl)acetamide]
7.00 | – | 112 | 12.3 | 552 | 2.51 | CN1CCn2nc(-c3ccc(F)cc3)c(-c3ccnc(NC(=O)Cc4ccc(F)cc4)c3)c2C1 [Compound I-80, 2-(4-fluorophenyl)-N-(4-(2-(4-fluorophenyl)-5-methyl-4,5,6,7-tetrahydropyrazolo [1,5-a]pyrazin-3-yl)pyridin-2-yl)acetamide]
7.00 | – | 16.5 | 84.1 | 453 | 3.06 | CC(=O)N1CCn2nc(-c3ccc(F)cc3)c(-c3ccnc(NC(=O)C(C)c4ccc(F)cc4)c3)c2C1 (stereo not shown) [Compound I-82, N-(4-(5-acetyl-2-(4-fluorophenyl)-4,5,6,7-tetrahydropyrazolo[1,5-a]pyrazin-3-yl)pyridin-2-yl)-2-(4-fluorophenyl)propanamide]
